Experimental data as given in US8951500B2, “13C-MR imaging or spectroscopy of cell death” (GE Healthcare AS, priority 2006, dated 2015).

Key:
[1] = T1 relaxation of 13C1-pyruvate in human full blood; assay type: physicochemical; details: human full blood at 37° C.
From the text: The amount of alanine, bicarbonate and lactate is dependent on the metabolic status of the tissue under investigation.
The isotopic enrichment of the hyperpolarised ^13C-pyruvate used in the method of the invention is preferably at least 75%, more preferably at least 80% and especially preferably at least 90%, an isotopic enrichment of over 90% being most preferred. Ideally, the enrichment is 100%. ^13C-pyruvate used in the method of the invention may be isotopically enriched at the C1-position (in the following denoted ^13C1-pyruvate), at the C2-position (in the following denoted ^13C2-pyruvate), at the C3-position (in the following denoted ^13C3-pyruvate), at the C1- and the C2-position (in the following denoted ^13C1,2-pyruvate), at the C1- and the C3-position (in the following denoted ^13C1,3-pyruvate), at the C2- and the C3-position (in the following denoted ^13C2,3-pyruvate) or at the C1-, C2- and C3-position (in the following denoted ^13C1,2,3-pyruvate). Isotopic enrichment at the C1-position is preferred since ^13C1-pyruvate has a higher T1 relaxation in human full blood at 37° C. (about 42 s) than ^13C-pyruvate which is isotopically enriched at other C-positions.

EL-4 tumour [2] = experiment: 1H NMR measurements on perchloric acid-extracts of freeze-clamped tumours; assay type: in vivo, mice; details: etoposide-treated tumours, extracts made immediately after MR experiments, n=8
Protocol: The data were collected 20 h after treatment of the animals with etoposide. […] These extracts were made immediately following completion of the MR experiments.

EL-4 tumour [3] = system: EL-4 tumour
Protocol: (§1) Lymphoma tumours were produced in mice by subcutaneous implantation of EL4 cells. The mice were treated with an i.p. injection of 67 mg/kg etoposide. Tumour cell death following etoposide treatment was assessed histologically. Non-etoposide treated mice were used as control.
(§2) The time-dependent changes in the tumour signals from lactate and pyruvate were fit to the exchange model to obtain the apparent rate constants, and spin lattice relaxation times (FIG. 3B). The first 10-15 s of data acquisition were lost since this was the time taken to complete the injection and insert the ^13C surface coil probe assembly, containing the animal, into the imaging magnet.
(§3) The data were collected 20 h after treatment of the animals with etoposide. The increased SDs after 40 s reflect the decrease in signal-to-noise on the lactate and pyruvate resonances resulting from the loss of polarisation. […] These extracts were made immediately following completion of the MR experiments.
(§4) In another series of experiments, animals were etoposide-treated 24 h after imaging and then 24 h after etoposide treatment a second set of images were acquired, thus each animal could serve as its own control. However, as with the other experiments, there was little variation within the groups and the group results are presented.

EL-4 tumour [4] = experiment: Tumour cell death (histology) and tumour volume (1H spin echo images) in EL4 lymphoma-bearing mice; assay type: in vivo
LDH = experiment: Enzyme activity measurements on protein extracts from freeze-clamped tumours; assay type: in vivo, mice; details: drug-treated tumours, n=3
EL-4 tumour [5] = experiment: In vivo 13C-MR spectroscopy of pyruvate-lactate label flux in EL4 tumours after i.v. hyperpolarised 13C1-pyruvate
Protocol: as §1, §2, §3, §4

[6] = system: EL-4 murine lymphoma cells; experiment: 31P-NMR measurements on acid-extracts of EL-4 cells induced to undergo cell death; assay type: cell-based
From the text: Loss of NAD(H) can be explained by DNA-damage induced activation of the enzyme poly-ADP-ribose polymerase (PARP), which […] various proteins and uses NAD^+ as a substrate.

[7] = system: EL4 murine lymphoma cells; experiment: 13C-MR spectroscopy of hyperpolarised 13C-label flux between pyruvate and lactate in EL4 cell suspensions; assay type: cell-based; details: co-treatment of cells with the cell death inducer
Protocol: EL4 murine lymphoma cells (10^8 cells) were treated with 15 μM etoposide (PCH Pharmachemie BV, Harleem), a compound which is known to induce cell death after 16 h exposure. A separate set of cells was treated for 16 hours with 15 μM etoposide plus 20 mM nicotinamide, a known PARP inhibitor. Cell death (apoptosis and necrosis) was confirmed by acridine orange and propidium iodide staining. The cells were washed 3 times with RPMI 1640 growth medium containing 10% FCS at 37° C. and to 2 ml of the etoposide- and etoposide/nicotinamide treated EL4 cell suspension 2 ml of the imaging medium according to Example 5 were added. The final cell suspension thus contained 30 mM hyperpolarised ^13C1-pyruvate and 37.5 mM lactate.
^13C-signal intensities from ^13C-pyruvate and ^13C-lactate in etoposide-treated EL4 cell suspensions as described in 6.1 were followed over a time period of 240 seconds from the time of addition of the imaging medium. […]
^13C-signal intensities from ^13C-pyruvate and ^13C-lactate in etoposide-treated and etoposide/nicotinamide treated EL4 cell suspensions as described in 6.1 were followed over a time period of 240 seconds from the time of addition of the imaging medium. […] The data were fit to a two-site exchange model based on the modified Bloch equations, and the rate constants for the forward and reverse exchange ^13C-fluxes were determined. […]

[8] = etoposide-treated EL-4 cells compared to untreated control cells

CC(=O)C(=O)O [^13C1-pyruvate]
T1 relaxation [1]: about 42 s

COc1cc([C@@H]2c3cc4c(cc3[C@@H](O[C@@H]3O[C@@H]5CO[C@@H](C)O[C@H]5[C@H](O)[C@H]3O)[C@H]3COC(=O)[C@H]23)OCO4)cc(OC)c1O [etoposide]
lactate/pyruvate ratio by 1H NMR (EL-4 tumour [2]): 5.1±2.0 | decrease in flux (EL-4 tumour [3]; following versus before treatment, n=4): 39% | rate constant (EL-4 tumour [3]; iv, 24 h): 0.040 ± 0.012 s⁻¹ | cell death (EL-4 tumour [4]; 24 h after drug treatment, 67 mg/kg i.p., n=3): 37.0±3.8% | tumour volume (EL-4 tumour [4]; treated tumours, multi-slice 1H spin echo images, n=8): 1.3±0.2 cm^3 | LDH activity (LDH): 100±20 units/g wet wt. | rate constant kP^app (EL-4 tumour [5]; etoposide-treated tumours, 20 h after treatment, n=8): 0.056 ± 0.005 s⁻¹ | calculated equilibrium lactate/pyruvate ratio (L∞/P∞) (EL-4 tumour [5]; etoposide-treated tumours, n=8): 2.7±0.4 | decrease in the rate constant kP^app (EL-4 tumour [5]; versus control tumours, data collected 20 h after treatment): approximately 25% | intensity of the resonances from NAD(H) [6, 8]: a decrease in the intensity of the resonances from NAD(H) | resonances from fructose-1,6-bisphosphate (FBP) [6, 8]: an increase in the resonances from the glycolytic intermediate, fructose-1,6-bisphosphate (FBP)

NC(=O)c1cccnc1 [nicotinamide]
ability to transfer hyperpolarised 13C-label between pyruvate and lactate pools [7]: maintained their ability to transfer the hyperpolarised ^13C-label between the pyruvate and lactate pools | effect of PARP inhibition on loss of NAD(H) and increase in FBP concentration in dying cells ([6]; 20 mM nicotinamide): inhibited the loss of NAD(H) and the increase in FBP concentration

NC(=O)c1cccc(N)c1 [3-aminobenzamide]
ability to transfer hyperpolarised 13C-label between pyruvate and lactate pools [7]: maintained their ability to transfer the hyperpolarised ^13C-label between the pyruvate and lactate pools | effect of PARP inhibition on loss of NAD(H) and increase in FBP concentration in dying cells ([6]; 10 mM 3-aminobenzamide): inhibited the loss of NAD(H) and the increase in FBP concentration
